Experimental data reported in patent US6753348B2, “BTK inhibitors and methods for their identification and use” (Parker Hughes Institute, priority 1998, dated 2004).

Test system: fetal liver derived human mast cells
Test: IgE/anti-IgE stimulated leukotriene C4 release, fetal liver derived human mast cells
Format: cell-based
Conditions: 100 μM, 30 min before anti-IgE challenge
Method: FIG. 27: Effect of LFM and LFM-A8 on IgE receptor/Fc epsilon RI-mediated human mast cell leukotriene C4 release. IgE sensitized fetal liver derived human mast cells were stimulated by challenging with anti-IgE. To study the effect of the test compounds, mast cells were incubated with vehicle or 100 μM LFM or LFM-A8 prior to challenge with anti-IgE. Leukotriene C4 levels were measured in cell-free supernatants by ELISA. Vehicle treated 10^6 mast cells released 12.5±2.2 ng leukotriene C4. The results are expressed as percent of vehicle-treated controls (N=4). The data points represent the mean±SEM values. *P<0.05 compared to vehicle-treated control, as determined by Student's t test.
Mast Cell Cultures. RBL-2H3 mast cells were a gift from Dr. Reuben P. Siraganian (Laboratory of Microbiology and Immunology, National Institute of Dental Research, National Institute of Health). […]
We next sought to determine the effect of LFM-A8 on IgE/FcεRI-mediated human mast cell leukotriene C4 release and compare its potency with that of LFM. […] The Fc[…] receptors of fetal liver-derived human mast cells were crosslinked with anti-IgE and the resulting mast cell leukotriene C4 release was quantitated by ELISA (Malaviya, R. and Abraham, S. N., (1995) Methods Enzymol, 253, 27-43).

CC(O)=C(C#N)C(=O)Nc1cccc(C(F)(F)F)c1 [LFM-A8, α-Cyano-β-hydroxy-β-methyl-N-[3-(trifluoromethyl)phenyl]-propenamide]
leukotriene C4 release from IgE/anti-IgE-stimulated human mast cells: significantly inhibited
